A word on the pKa: it is the negative logarithm of the acid dissociation constant.

From US11458433B2, “Absorbent and process for selectively removing hydrogen sulfide” (BASF SE, priority 2017, dated 2022) come the findings set out here.

Common to all, as to type: physicochemical
Data set [1] in a line: Volatility of amines in 30% by weight aqueous solutions (condensate analysis). The following applies: 30 wt.-% amine + 70 wt.-% H2O, 200 mL, 50° C., 30 L (STP)/h N2, 8 h; average of three experiments. Here is the method:
The volatility of several amines in 30% by weight aqueous solutions was examined.
The glass cylinder was regulated to 50° C., and 200 mL of the absorbent were introduced in each case. Over an experimental duration of 8 h, 30 L (STP)/h of N2 were passed through the absorbent at ambient pressure.
The experiments were repeated three times.

Data set [2] is described as follows: Phase separation: critical solution temperature in miscibility unit. The following applies: 36 wt.-% aqueous solution; measurable up to 140° C. Here is the method: To determine the critical solution temperature, a miscibility unit was used. This unit allows the measurement of the temperature at which phase separation occurs (“critical solution temperature”).
The miscibility unit comprised a sight glass vessel equipped with a pressure gauge and a thermocouple. A heater was used to supply heat to the vessel. Measurements were possible up to a temperature of 140° C. The possible phase separation could be visually observed via the sight glass. In the following table, the measured critical solution temperatures are shown for different aqueous amine mixtures.

A short description of data set [3]: pKA determination by titration with aqueous hydrochloric acid. The following applies: aqueous amine solution; 20° C.; 0.005 mol/L amine in water titrated with 0.1 mol/L HCl. Here is the method: The pKa values of MDEA and TBAPD were determined by means of titration. An aqueous solution with an amine concentration of 0.005 mol/L of amine was used and titrated with aqueous hydrochloric acid (0.1 mol/L) at 20° C.

`COCCOCCOCCNC(C)(C)C` [M3ETB, (2-(2-(2-tert-butylaminoethoxy)ethoxy)ethyl) methyl ether]: in data set [1], the Amine in condensate is reported as 0.7 wt.-%, the Condensate worked out at 30.1 mL and the Water in condensate is 99.2 wt.-%. Also, in data set [2], the “Critical Solution Temperature” value was 107° ° C.
As for `CC(C)(C)NCCOCCO` [TBAEE, 2-(2-tert-butylaminoethoxy)ethanol], in data set [1], the Amine in condensate was 0.7 wt.-%, the Condensate is recorded as 30.0 mL and the Water in condensate was found to be 99.3 wt.-%.
As to `CC(C)(C)NCCN1CCCC1=O` [TBAEPY, 1-[2-(tert-butylamino)ethyl]pyrrolidin-2-one], in data set [1], the Amine in condensate was determined as 0.2 wt.-%, the Condensate is given as 28.8 mL and the Water in condensate was determined as 99.5 wt.-%. Further, the “Critical Solution Temperature” value in data set [2] is “—** (no phase separation observed at up to 140° C.)”. The pKa in data set [3] stood at 9.6.
For “tert-butylaminoethoxyethylmorpholine [TBAEEM]”, in data set [1], the Amine in condensate stood at 0.2 wt.-%, the Condensate is 30.5 mL and the Water in condensate was 99.6 wt.-%. The “Critical Solution Temperature” value in data set [2] was 131° ° C.
In the case of tert-butylaminoethylmorpholine [TBAEM], in data set [1], the Amine in condensate is recorded as 1.6 wt.-%, the Condensate is 34.8 mL and the Water in condensate worked out at 98.0 wt.-%.
